Consider 14 compounds from US20180194762A1 (Pharmacyclics LLC, priority 2017, published 2018).

What all share (format): biochemical
The target of one assay is T1, Btk (Homo sapiens, UniProt Q06187).
T1 construct: purified from insect cells as a full-length construct containing a N-terminal 6X-His tag; His6 (N); made in house; host or cells: insect cells (Method C)
In words: Btk in vitro inhibitory activity (one of Method A TR-FRET, Method B electrophoretic mobility shift, Method C radiometric filter binding). In outline: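 Method A: TR-FRET with 0.5 nM Btk at [ATP]=Km, EDTA-quenched, 665/615 nm ratio; Ki(app) converted to IC50. Method B: 1 nM full-length His6 human BTK, 1 μM FAM peptide, pH 7.5, mobility-shift product/sum ratio, 12-point 4-parameter fit. Method C: radiometric filter binding, 8 nM His-tagged BTK, 0.2 mg/mL poly-Glu-Tyr.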
For orientation: In EMSA bound probe runs differently from free probe, usually more slowly.

The next assay has as its target T2, TEC (Homo sapiens, UniProt P42680).
T2 sequence (P42680 1-631): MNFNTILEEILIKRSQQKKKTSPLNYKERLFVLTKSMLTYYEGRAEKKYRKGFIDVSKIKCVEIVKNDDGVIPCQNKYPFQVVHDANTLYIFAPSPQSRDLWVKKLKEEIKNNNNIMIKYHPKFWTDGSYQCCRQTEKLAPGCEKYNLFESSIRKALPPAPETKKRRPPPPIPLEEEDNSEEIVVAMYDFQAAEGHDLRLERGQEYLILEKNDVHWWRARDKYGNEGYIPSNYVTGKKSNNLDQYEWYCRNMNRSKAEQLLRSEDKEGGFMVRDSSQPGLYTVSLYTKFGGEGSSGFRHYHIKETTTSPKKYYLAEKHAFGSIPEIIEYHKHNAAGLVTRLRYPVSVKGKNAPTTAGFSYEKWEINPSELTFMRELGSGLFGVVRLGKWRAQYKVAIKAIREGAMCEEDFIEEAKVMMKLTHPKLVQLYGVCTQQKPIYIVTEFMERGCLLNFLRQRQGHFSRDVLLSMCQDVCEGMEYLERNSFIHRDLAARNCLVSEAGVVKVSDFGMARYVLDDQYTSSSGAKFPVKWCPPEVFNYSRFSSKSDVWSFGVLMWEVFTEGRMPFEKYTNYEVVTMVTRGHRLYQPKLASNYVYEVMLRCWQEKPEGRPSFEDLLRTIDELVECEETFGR
The experiment in a line: Inhibition of a panel of kinases (in vitro HotSpot kinase assay, 33P-ATP, 1 μM ATP). As to conditions: for IC50: HotSpot kinase assay, 1 μM ATP; for TEC/Btk: ratio of TEC IC50 to Btk IC50 (selectivity). In outline: (§1)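 Purified kinase enzymes were incubated with an appropriate substrate and 33P-labelled ATP at 1 μM ATP. Inhibition was measured radiometrically from incorporation of the 33P label.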

For a further assay, the target named is T3, panel of kinases (Homo sapiens, UniProt P51813).
T3 sequence (P51813 1-675): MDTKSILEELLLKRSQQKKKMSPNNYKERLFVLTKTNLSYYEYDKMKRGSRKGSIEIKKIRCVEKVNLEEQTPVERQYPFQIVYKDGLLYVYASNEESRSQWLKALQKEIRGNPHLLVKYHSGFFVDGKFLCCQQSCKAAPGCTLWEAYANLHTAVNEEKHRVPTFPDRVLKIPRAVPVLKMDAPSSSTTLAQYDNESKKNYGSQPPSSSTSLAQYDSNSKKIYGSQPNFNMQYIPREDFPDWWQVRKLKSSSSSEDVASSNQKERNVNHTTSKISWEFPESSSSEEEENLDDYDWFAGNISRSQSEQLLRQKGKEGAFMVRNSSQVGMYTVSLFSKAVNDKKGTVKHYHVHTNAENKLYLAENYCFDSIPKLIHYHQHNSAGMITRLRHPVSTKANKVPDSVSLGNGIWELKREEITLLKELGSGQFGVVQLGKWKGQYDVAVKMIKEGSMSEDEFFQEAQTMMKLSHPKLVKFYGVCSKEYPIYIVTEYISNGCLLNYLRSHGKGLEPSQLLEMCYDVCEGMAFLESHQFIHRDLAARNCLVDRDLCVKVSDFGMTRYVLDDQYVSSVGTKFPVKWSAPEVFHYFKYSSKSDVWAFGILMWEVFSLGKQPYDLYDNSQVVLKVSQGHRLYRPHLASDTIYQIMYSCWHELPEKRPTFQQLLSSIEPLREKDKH
In words: Inhibition of a panel of kinases (in vitro HotSpot kinase assay, 33P-ATP, 1 μM ATP), other kinases. As to conditions: BMX wild-type, read-out: BMX-WT IC50. The procedure, abridged:
as §1

[1] abbreviates: method is one of A, B or C, not stated which, read-out: IC50 values against Btk.
Where [2] appears, read: wild-type Btk, read-out: Btk-WT IC50.

Like-named read-outs stand apart in the source and are kept apart here.

T1 sequence (Q06187 whole entry): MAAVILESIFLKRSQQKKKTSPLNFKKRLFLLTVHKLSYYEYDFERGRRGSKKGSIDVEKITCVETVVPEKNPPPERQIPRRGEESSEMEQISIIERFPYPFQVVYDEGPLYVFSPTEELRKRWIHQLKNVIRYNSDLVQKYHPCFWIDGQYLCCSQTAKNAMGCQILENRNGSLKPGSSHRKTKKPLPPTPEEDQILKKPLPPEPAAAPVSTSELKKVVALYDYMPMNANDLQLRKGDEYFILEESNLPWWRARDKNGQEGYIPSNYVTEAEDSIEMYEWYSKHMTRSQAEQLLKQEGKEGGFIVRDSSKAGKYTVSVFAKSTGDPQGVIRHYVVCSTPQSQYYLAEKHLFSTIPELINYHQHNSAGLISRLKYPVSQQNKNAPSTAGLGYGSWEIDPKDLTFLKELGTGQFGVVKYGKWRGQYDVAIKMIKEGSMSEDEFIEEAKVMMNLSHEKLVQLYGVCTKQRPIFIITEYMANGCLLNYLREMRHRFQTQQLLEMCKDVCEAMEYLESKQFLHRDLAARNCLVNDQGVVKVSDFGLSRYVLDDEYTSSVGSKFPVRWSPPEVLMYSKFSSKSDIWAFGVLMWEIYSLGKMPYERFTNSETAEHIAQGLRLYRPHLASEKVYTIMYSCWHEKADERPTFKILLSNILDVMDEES

Consider `CC(C)(C)c1nc(C(=O)NCc2ccc(-c3ccnc4[nH]nc(N[C@@H]5CCCN(C=O)C5)c34)cc2F)no1` [Example 90, 5-tert-butyl-N-{[2-fluoro-4-(3-{[(3R)-1-formylpiperidin-3-yl]amino}-1H-pyrazolo[3,4-b]pyridin-4-yl)phenyl]methyl}-1,2,4-oxadiazole-3-carboxamide], for which the IC50 at Btk (setting [1]) is < 10 nM; at Btk (setting [2]) it was 9.44 nM; against TEC it was 2250 nM; at panel of kinases, 2620 nM. Also, the TEC/Btk at TEC was determined as 238.
Turning to `C=CC(=O)N[C@H]1CC[C@H](Nc2n[nH]c3nccc(-c4ccc(CNC(=O)c5noc(C(C)(C)C)n5)c(F)c4)c23)CC1` [Example 152, 5-tert-butyl-N-{[2-fluoro-4-(3-{[(1r,4r)-4-(prop-2-enamido)cyclohexyl]amino}-1H-pyrazolo[3,4-b]pyridin-4-yl)phenyl]methyl}-1,2,4-oxadiazole-3-carboxamide], the IC50 on Btk (setting [1]) was < 10 nM; at Btk (setting [2]), 3.41 nM; against TEC, 2680 nM; at panel of kinases it was 496 nM.
Consider `CC1(C(=O)N2CC[C@@H](Nc3n[nH]c4nccc(-c5ccc(CNC(=O)c6ccc(C7CC7)cc6)c(F)c5)c34)C2)COC1` [Compound 41, 4-cyclopropyl-N-{[2-fluoro-4-(3-{[(3R)-1-(3-methyloxetane-3-carbonyl)pyrrolidin-3-yl]amino}-1H-pyrazolo[3,4-b]pyridin-4-yl)phenyl]methyl}benzamide], for which the IC50 on Btk (setting [2]) was 251 nM; against TEC, 3010 nM; on panel of kinases it was > 10000 nM. Also, on TEC, the TEC/Btk turned out to be 12.
For the compound `C=CC(=O)N[C@@H]1CCN(c2n[nH]c3nccc(-c4ccc(CNC(=O)c5nc6ccccc6o5)c(F)c4)c23)C1` [Example 395, N-{[2-fluoro-4-(3-{(3R)-3-[(prop-2-enoyl)amino]pyrrolidin-1-yl}-1H-pyrazolo[3,4-b]pyridin-4-yl)phenyl]methyl}-1,3-benzoxazole-2-carboxamide], the IC50 came to 1.19 nM on Btk (setting [2]), 52.6 nM at TEC and 30.3 nM on panel of kinases.
On the same counts, the results for `CC(C)(C)c1ccc(C(=O)NCc2ccc(-c3ccnc4[nH]nc(N[C@@H]5CCNC5)c34)cc2F)cc1` [Compound 8, 4-tert-butyl-N-{[2-fluoro-4-(3-{[(3R)-pyrrolidin-3-yl]amino}-1H-pyrazolo[3,4-b]pyridin-4-yl)phenyl]methyl}benzamide] are 144 nM, > 10000 nM and > 10000 nM.
As for `C=CC(=O)N1CC[C@@H](Nc2n[nH]c3nccc(-c4ccc([C@@H](C)NC(=O)c5noc(C(C)(C)C)n5)cc4)c23)C1` [Example 98, 5-tert-butyl-N-[(1R)-1-[4-(3-{[(3R)-1-(prop-2-enoyl)pyrrolidin-3-yl]amino}-1H-pyrazolo[3,4-b]pyridin-4-yl)phenyl]ethyl]-1,2,4-oxadiazole-3-carboxamide], the IC50 at Btk (setting [1]) is < 10 nM; on Btk (setting [2]), 0.165 nM; on TEC, 108 nM; at panel of kinases, 239 nM. The TEC/Btk on TEC was determined as 652.
Take `Cc1ccc(C(=O)NCc2ccc(-c3ccnc4[nH]nc(N[C@@H]5CCNC5)c34)cc2F)cc1` [Compound 32, (R)—N-(2-fluoro-4-(3-(pyrrolidin-3-ylamino)-1H-pyrazolo[3,4-b]pyridin-4-yl)benzyl)-4-methylbenzamide]: the IC50 at Btk (setting [2]) worked out at 328 nM; against TEC, 5440 nM; on panel of kinases, 1410 nM. For the same compound, on TEC, the TEC/Btk is 17.
For the compound `C=CC(=O)N1CCC[C@@H](Nc2n[nH]c3nccc(-c4ccc(C5(NC(=O)c6noc(C(C)(C)C)n6)CC5)cc4)c23)C1` [Example 270, 5-tert-butyl-N-{1-[4-(3-{[(3R)-1-(prop-2-enoyl)piperidin-3-yl]amino}-1H-pyrazolo[3,4-b]pyridin-4-yl)phenyl]cyclopropyl}-1,2,4-oxadiazole-3-carboxamide], the IC50 on Btk (setting [2]) came out at 0.792 nM; against TEC it was 613 nM; at panel of kinases, 312 nM. For the same compound, the TEC/Btk at TEC was 774.
As to `CC(C)(C)c1nc(C(=O)NC(C)(C)c2ccc(-c3ccnc4[nH]nc(N[C@@H]5CCNC5)c34)cc2)no1` [Example 122, 5-tert-butyl-N-{2-[4-(3-{[(3R)-pyrrolidin-3-yl]amino}-1H-pyraozlo[3,4-b]pyridin-4-yl)phenyl]propan-2-yl}-1,2,4-oxadiazole-3-carboxamide], the IC50 at Btk (setting [2]), at TEC and at panel of kinases was > 10000 nM in each case.
`CC(C)(C)c1ccc(C(=O)NCc2cc(F)cc(-c3ccnc4[nH]nc(N[C@@H]5CCNC5)c34)c2)cc1` [Example 75, 4-tert-butyl-N-{[3-fluoro-5-(3-{[(3R)-pyrrolidin-3-yl]amino}-1H-pyrazolo[3,4-b]pyridin-4-yl)phenyl]methyl}benzamide]: the IC50 on Btk (setting [2]), against TEC and at panel of kinases was > 10000 nM in each case.
As for `CC(C)(C)c1noc(C(=O)NCc2ccc(-c3ccnc4[nH]nc(N5CCC(NC(=O)c6ccccc6)CC5)c34)cc2F)n1` [Example 208, N-({4-[3-(4-benzamidopiperidin-1-yl)-1H-pyrazolo[3,4-b]pyridin-4-yl]-2-fluorophenyl}methyl)-3-tert-butyl-1,2,4-oxadiazole-5-carboxamide], the figures for the IC50 on Btk (setting [2]), at TEC and on panel of kinases were 0.658 nM, 1710 nM and 2090 nM, respectively. For the same compound, the TEC/Btk on TEC was found to be 2599.
On to `C=CC(=O)N1CC[C@@H](Nc2n[nH]c3nccc(-c4ccc(CNC(=O)c5cc6c(n5C)CC(C)(C)C6)c(F)c4)c23)C1` [Example 158, N-{[2-fluoro-4-(3-{[(3R)-1-(prop-2-enoyl)pyrrolidin-3-yl]amino}-1H-pyrazolo[3,4-b]pyridin-4-yl)phenyl]methyl}-1,5,5-trimethyl-1H,4H,5H,6H-cyclopenta[b]pyrrole-2-carboxamide], for which the IC50 is < 10 nM on Btk (setting [1]), 7.71 nM on Btk (setting [2]), 394 nM against TEC and 170 nM at panel of kinases. For the same compound, at TEC, the TEC/Btk worked out at 51.
With `CN(C)C(=O)N1CC[C@@H](Nc2n[nH]c3nccc(-c4ccc(CNC(=O)c5cnn(C(C)(C)C)c5)c(F)c4)c23)C1` [Example 119, 1-tert-butyl-N-{[4-(3-{[(3R)-1-(dimethylcarbamoyl)pyrrolidin-3-yl]amino}-1H-pyrazolo[3,4-b]pyridin-4-yl)-2-fluorophenyl]methyl}-1H-pyrazole-4-carboxamide], the IC50 on Btk (setting [2]) turned out to be 49 nM; against TEC, 8590 nM; on panel of kinases, 6530 nM. For the same compound, the TEC/Btk at TEC came out at 175.
Turning to `CCC(=O)N1CC(Nc2n[nH]c3nccc(-c4ccc(CNC(=O)c5noc(C(C)(C)C)n5)c(F)c4)c23)C1` [Example 130, 5-tert-butyl-N-[(2-fluoro-4-{3-[(1-propanoylazetidin-3-yl)amino]-1H-pyrazolo[3,4-b]pyridin-4-yl}phenyl)methyl]-1,2,4-oxadiazole-3-carboxamide], the IC50 at Btk (setting [1]) is < 10 nM; at Btk (setting [2]), 1.28 nM; at TEC it was 1330 nM; at panel of kinases, 3580 nM. Moreover, at TEC, the TEC/Btk was 1039.

By IC50 is commonly meant the midpoint of a concentration-inhibition curve.
